Data published in PMC314469, “Protein Interaction Networks by Proteome Peptide Scanning” (PLoS Biology, 2004).

System: Myo5 SH3 domain
Test: SPOT analysis of cellulose-bound peptides (WISE), Myo5 SH3 domain (Dataset S4)
Format: binding, Saccharomyces cerevisiae
Conditions: SPOT analysis of cellulose-bound peptides probed with Myo5 SH3 domain; normalized value

## SLTSLPPPPPPQFS
  The normalized value in BLU units (SPOT analysis, Myo5 SH3): 7261.1 BLU
